Measurements taken from ChEMBL document CHEMBL4507301 (2021).

Key:
[1] = target: Ribosomal protein S6 kinase alpha-1 (Homo sapiens) (UniProt Q15418); conditions: Compound concentration 1000.0 nM
[2] = target: Serine/threonine-protein kinase PknB (Mycobacterium tuberculosis) (UniProt P9WI81); conditions: Compound concentration 1000.0 nM
[3] = target: Mitogen-activated protein kinase kinase kinase 5 (Homo sapiens) (UniProt Q99683); conditions: Compound concentration 1000.0 nM
[4] = target: Serine/threonine-protein kinase Nek11 (Homo sapiens) (UniProt Q8NG66); conditions: Compound concentration 1000.0 nM
[5] = target: Serine/threonine-protein kinase ULK3 (Homo sapiens) (UniProt Q6PHR2); conditions: Compound concentration 1000.0 nM
[6] = target: Mitogen-activated protein kinase kinase kinase 15 (Homo sapiens) (UniProt Q6ZN16); conditions: Compound concentration 1000.0 nM
[7] = target: Tyrosine-protein kinase Yes (Homo sapiens) (UniProt P07947); conditions: Compound concentration 1000.0 nM
[8] = target: Tyrosine-protein kinase TXK (Homo sapiens) (UniProt P42681); conditions: Compound concentration 1000.0 nM
[9] = target: RAC-gamma serine/threonine-protein kinase (Homo sapiens) (UniProt Q9Y243); conditions: Compound concentration 1000.0 nM
[10] = target: Tyrosine-protein kinase BTK (Homo sapiens) (UniProt Q06187); conditions: Compound concentration 1000.0 nM
[11] = target: Serine/threonine-protein kinase N1 (Homo sapiens) (UniProt Q16512); conditions: Compound concentration 1000.0 nM
[12] = target: Serine/threonine-protein kinase Nek9 (Homo sapiens) (UniProt Q8TD19); conditions: Compound concentration 1000.0 nM
[13] = target: Alpha-1B adrenergic receptor (Homo sapiens) (UniProt P35368); conditions: Compound concentration 10.0 uM
[14] = target: Insulin-like growth factor 1 receptor (Homo sapiens) (UniProt P08069); conditions: Compound concentration 1000.0 nM
[15] = target: 5'-AMP-activated protein kinase catalytic subunit alpha-1 (Homo sapiens) (UniProt Q13131); conditions: Compound concentration 1000.0 nM
[16] = target: Atypical kinase COQ8A, mitochondrial (Homo sapiens) (UniProt Q8NI60); conditions: Compound concentration 1000.0 nM
[17] = target: Serine/threonine-protein kinase NLK (Homo sapiens) (UniProt Q9UBE8); conditions: Compound concentration 1000.0 nM
[18] = target: Phosphatidylinositol 4,5-bisphosphate 3-kinase catalytic subunit gamma isoform (Homo sapiens) (UniProt P48736); conditions: Compound concentration 1000.0 nM
[19] = tested on: Phosphatidylinositol 4,5-bisphosphate 3-kinase catalytic subunit alpha isoform (Homo sapiens), P42336 [M1043I]; conditions: Compound concentration 1000.0 nM
[20] = species on record: Rattus norvegicus; conditions: Compound concentration 10.0 uM
[21] = target: Ephrin type-A receptor 5 (Homo sapiens) (UniProt P54756); conditions: Compound concentration 1000.0 nM
[22] = target: Dual specificity mitogen-activated protein kinase kinase 4 (Homo sapiens) (UniProt P45985); conditions: Compound concentration 1000.0 nM
[23] = target: Ribosomal protein S6 kinase beta-1 (Homo sapiens) (UniProt P23443); conditions: Compound concentration 1000.0 nM
[24] = tested on: Phosphatidylinositol 4,5-bisphosphate 3-kinase catalytic subunit alpha isoform (Homo sapiens), P42336 [I800L]; conditions: Compound concentration 1000.0 nM
[25] = tested on: Epidermal growth factor receptor (Homo sapiens), P00533 [UNDEFINED MUTATION]; conditions: Compound concentration 1000.0 nM
[26] = target: Serine/threonine-protein kinase 24 (Homo sapiens) (UniProt Q9Y6E0); conditions: Compound concentration 1000.0 nM
[27] = target: Ribosomal protein S6 kinase alpha-3 (Homo sapiens) (UniProt P51812); conditions: Compound concentration 1000.0 nM
[28] = target: Myosin light chain kinase 2, skeletal/cardiac muscle (Homo sapiens) (UniProt Q9H1R3); conditions: Compound concentration 1000.0 nM
[29] = target: Mitogen-activated protein kinase 9 (Homo sapiens) (UniProt P45984); conditions: Compound concentration 1000.0 nM
[30] = tested on: ALK tyrosine kinase receptor (Homo sapiens), Q9UM73 [L1196M]; conditions: Compound concentration 1000.0 nM
[31] = target: Mitogen-activated protein kinase 1 (Homo sapiens) (UniProt P28482); conditions: Compound concentration 1000.0 nM
[32] = target: Receptor tyrosine-protein kinase erbB-2 (Homo sapiens) (UniProt P04626); conditions: Compound concentration 1000.0 nM
[33] = target: Myosin-IIIa (Homo sapiens) (UniProt Q8NEV4); conditions: Compound concentration 1000.0 nM
[34] = target: Eukaryotic translation initiation factor 2-alpha kinase 1 (Homo sapiens) (UniProt Q9BQI3); conditions: Compound concentration 1000.0 nM
[35] = target: Serine/threonine-protein kinase Nek6 (Homo sapiens) (UniProt Q9HC98); conditions: Compound concentration 1000.0 nM
[36] = target: Tyrosine-protein kinase Fes/Fps (Homo sapiens) (UniProt P07332); conditions: Compound concentration 1000.0 nM
[37] = target: TRAF2 and NCK-interacting protein kinase (Homo sapiens) (UniProt Q9UKE5); conditions: Compound concentration 1000.0 nM
[38] = target: Activin receptor type-2A (Homo sapiens) (UniProt P27037); conditions: Compound concentration 1000.0 nM
[39] = target: Hepatocyte growth factor receptor (Homo sapiens) (UniProt P08581); conditions: Compound concentration 1000.0 nM
[40] = target: Mitogen-activated protein kinase kinase kinase 3 (Homo sapiens) (UniProt Q99759); conditions: Compound concentration 1000.0 nM
[41] = target: 5-hydroxytryptamine receptor 1A (Homo sapiens) (UniProt P08908); conditions: Compound concentration 10.0 uM
[42] = target: cGMP-dependent protein kinase 2 (Homo sapiens) (UniProt Q13237); conditions: Compound concentration 1000.0 nM
[43] = target: Angiopoietin-1 receptor (Homo sapiens) (UniProt Q02763); conditions: Compound concentration 1000.0 nM
[44] = target: Serine/threonine-protein kinase WNK2 (Homo sapiens) (UniProt Q9Y3S1); conditions: Compound concentration 1000.0 nM
[45] = target: Serine/threonine-protein kinase Sgk3 (Homo sapiens) (UniProt Q96BR1); conditions: Compound concentration 1000.0 nM

Chain of ALK tyrosine kinase receptor (Homo sapiens), Q9UM73 [L1196M] (Q9UM73 whole entry L1196M, looked up): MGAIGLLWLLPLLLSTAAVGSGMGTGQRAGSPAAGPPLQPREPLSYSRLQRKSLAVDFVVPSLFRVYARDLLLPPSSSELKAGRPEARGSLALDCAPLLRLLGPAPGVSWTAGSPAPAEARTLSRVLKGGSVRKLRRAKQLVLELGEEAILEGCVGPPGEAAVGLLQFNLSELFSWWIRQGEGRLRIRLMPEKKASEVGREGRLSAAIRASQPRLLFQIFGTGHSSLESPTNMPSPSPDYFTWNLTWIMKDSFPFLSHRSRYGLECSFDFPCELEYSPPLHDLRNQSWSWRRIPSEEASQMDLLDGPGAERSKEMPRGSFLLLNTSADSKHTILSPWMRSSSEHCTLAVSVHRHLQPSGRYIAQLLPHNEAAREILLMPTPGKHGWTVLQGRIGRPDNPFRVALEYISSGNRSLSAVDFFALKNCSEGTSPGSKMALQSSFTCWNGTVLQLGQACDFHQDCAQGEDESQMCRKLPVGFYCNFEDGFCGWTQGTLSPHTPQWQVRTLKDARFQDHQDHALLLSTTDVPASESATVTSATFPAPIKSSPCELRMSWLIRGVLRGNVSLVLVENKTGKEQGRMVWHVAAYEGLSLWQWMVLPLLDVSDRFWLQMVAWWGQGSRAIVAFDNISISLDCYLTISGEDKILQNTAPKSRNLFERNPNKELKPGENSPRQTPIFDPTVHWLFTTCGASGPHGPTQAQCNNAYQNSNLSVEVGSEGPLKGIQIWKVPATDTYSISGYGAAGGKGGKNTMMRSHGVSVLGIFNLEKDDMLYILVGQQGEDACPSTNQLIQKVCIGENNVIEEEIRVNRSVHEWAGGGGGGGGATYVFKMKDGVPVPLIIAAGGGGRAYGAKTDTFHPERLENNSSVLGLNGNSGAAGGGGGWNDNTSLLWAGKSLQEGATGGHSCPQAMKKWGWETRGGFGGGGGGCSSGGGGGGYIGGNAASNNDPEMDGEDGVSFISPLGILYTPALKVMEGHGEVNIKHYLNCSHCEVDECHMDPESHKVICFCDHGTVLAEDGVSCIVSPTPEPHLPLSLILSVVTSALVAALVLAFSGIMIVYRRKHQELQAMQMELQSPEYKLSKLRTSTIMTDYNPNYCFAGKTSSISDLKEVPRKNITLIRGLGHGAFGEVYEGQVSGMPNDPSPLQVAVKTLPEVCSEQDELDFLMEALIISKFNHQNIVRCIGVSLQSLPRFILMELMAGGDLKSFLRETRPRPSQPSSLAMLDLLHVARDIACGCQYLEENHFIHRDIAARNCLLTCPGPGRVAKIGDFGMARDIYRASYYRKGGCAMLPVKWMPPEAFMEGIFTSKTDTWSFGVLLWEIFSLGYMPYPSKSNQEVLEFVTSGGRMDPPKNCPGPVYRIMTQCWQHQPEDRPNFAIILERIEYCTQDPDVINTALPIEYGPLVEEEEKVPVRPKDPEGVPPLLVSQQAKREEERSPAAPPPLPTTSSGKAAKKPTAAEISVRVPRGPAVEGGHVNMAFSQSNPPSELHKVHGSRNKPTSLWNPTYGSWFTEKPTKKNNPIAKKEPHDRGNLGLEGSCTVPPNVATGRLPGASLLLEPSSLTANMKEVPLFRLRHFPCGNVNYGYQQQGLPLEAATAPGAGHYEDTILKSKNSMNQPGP
Chain of Insulin-like growth factor 1 receptor (Homo sapiens) (P08069 31-736 limits assumed): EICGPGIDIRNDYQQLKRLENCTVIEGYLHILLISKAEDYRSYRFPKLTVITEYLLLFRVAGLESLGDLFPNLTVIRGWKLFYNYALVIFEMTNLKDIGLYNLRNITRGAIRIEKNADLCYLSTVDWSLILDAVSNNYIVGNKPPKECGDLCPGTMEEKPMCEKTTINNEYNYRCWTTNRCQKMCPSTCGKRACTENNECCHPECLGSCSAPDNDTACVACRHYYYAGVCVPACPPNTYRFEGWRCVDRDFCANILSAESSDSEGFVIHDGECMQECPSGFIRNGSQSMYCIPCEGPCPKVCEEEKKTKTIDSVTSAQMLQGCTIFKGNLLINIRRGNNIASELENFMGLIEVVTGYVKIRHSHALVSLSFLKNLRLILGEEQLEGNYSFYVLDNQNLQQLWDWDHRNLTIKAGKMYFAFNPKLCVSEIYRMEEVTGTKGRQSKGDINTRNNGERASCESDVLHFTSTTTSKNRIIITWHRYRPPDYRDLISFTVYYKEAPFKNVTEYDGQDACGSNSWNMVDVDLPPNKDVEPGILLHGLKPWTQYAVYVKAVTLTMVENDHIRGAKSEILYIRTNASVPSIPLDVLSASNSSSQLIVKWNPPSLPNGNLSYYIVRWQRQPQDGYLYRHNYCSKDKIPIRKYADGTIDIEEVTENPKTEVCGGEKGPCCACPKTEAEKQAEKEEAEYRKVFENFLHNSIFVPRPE
Chain of Insulin-like growth factor 1 receptor (Homo sapiens) (P08069 741-1367 limits assumed): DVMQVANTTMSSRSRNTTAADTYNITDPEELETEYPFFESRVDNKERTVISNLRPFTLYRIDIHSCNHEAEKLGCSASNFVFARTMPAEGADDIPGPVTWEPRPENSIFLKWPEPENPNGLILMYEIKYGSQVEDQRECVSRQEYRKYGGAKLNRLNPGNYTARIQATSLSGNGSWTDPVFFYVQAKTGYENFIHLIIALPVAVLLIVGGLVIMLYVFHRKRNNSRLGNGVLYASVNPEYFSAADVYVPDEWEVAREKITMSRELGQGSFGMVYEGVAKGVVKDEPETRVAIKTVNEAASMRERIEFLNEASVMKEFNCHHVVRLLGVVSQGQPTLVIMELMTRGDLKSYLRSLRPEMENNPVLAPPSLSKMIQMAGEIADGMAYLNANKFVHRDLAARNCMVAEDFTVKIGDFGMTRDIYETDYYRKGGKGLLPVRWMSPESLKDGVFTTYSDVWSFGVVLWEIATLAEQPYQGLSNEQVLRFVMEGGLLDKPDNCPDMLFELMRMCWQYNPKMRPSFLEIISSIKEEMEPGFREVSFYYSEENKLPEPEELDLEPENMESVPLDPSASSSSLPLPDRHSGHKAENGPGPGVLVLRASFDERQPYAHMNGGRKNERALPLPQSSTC
Chain of Serine/threonine-protein kinase NLK (Homo sapiens) (Q9UBE8 whole entry, canonical isoform): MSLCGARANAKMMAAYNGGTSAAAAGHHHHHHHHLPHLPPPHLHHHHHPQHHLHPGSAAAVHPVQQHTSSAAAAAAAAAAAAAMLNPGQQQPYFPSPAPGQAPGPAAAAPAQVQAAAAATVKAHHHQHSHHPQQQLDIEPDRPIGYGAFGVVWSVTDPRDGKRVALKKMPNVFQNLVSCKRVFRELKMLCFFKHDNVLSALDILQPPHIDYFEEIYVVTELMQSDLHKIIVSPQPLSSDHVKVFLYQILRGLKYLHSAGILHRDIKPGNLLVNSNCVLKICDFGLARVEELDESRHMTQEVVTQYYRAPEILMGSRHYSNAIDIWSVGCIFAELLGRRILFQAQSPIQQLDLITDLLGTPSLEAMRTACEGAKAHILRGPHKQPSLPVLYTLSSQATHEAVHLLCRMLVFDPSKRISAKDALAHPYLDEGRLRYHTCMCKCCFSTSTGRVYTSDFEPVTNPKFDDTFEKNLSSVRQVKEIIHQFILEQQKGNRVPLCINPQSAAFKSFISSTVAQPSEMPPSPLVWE
Chain of Hepatocyte growth factor receptor (Homo sapiens) (P08581 whole entry): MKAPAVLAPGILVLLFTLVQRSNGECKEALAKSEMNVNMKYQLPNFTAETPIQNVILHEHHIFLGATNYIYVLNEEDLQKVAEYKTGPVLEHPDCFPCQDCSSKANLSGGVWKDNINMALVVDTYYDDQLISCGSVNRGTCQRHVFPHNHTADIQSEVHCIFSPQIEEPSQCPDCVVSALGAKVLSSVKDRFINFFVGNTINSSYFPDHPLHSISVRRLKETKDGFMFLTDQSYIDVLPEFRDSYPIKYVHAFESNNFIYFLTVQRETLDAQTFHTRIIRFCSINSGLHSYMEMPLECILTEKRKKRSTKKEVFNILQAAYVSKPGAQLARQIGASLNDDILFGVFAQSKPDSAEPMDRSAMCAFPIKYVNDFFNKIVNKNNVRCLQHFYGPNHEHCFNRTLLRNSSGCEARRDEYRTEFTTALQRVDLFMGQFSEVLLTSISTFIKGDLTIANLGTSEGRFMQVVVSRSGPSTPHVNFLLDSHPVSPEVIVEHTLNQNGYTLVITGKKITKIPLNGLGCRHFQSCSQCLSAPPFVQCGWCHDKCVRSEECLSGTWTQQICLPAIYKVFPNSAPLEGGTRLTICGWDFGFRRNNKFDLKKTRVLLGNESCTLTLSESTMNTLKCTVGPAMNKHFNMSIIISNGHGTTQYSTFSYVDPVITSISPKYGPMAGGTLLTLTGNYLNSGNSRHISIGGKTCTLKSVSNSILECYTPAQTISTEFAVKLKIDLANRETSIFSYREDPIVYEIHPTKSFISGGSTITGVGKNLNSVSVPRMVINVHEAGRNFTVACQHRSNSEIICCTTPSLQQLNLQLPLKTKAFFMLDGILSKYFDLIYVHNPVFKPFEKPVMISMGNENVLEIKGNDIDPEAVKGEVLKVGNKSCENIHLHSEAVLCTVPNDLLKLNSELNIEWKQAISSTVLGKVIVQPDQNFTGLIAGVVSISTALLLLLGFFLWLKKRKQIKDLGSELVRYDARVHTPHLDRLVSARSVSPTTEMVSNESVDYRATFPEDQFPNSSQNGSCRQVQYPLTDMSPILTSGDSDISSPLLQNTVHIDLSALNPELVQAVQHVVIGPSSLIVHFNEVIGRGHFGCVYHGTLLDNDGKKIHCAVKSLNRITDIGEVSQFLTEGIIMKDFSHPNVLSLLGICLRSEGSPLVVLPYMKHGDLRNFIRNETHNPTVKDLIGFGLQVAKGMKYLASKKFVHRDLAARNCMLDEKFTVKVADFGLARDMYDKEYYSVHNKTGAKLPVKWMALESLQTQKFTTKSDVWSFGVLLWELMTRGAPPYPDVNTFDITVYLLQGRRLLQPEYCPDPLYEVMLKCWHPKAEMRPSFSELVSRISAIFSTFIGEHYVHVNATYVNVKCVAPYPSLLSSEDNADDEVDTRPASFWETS

`C[C@@H](c1cccc(C#N)c1)n1cc(Cl)cc(C(N)=O)c1=N` [(S)-9s] was tested. Which residual activity [1] did it give?
The residual activity was 100%.

And the residual activity [2]?
The residual activity was 100%.

What about the residual activity [3] of the same compound?
Its residual activity is 100%.

What about the residual activity [4] of the same compound?
The residual activity was 92%.

And the residual activity [5]?
Its residual activity is 75%.

What about the residual activity [6] of the same compound?
The residual activity was 98%.

And the residual activity [7]?
Its residual activity is 93%.

What about the residual activity [8] of the same compound?
The residual activity was 68%.

And the residual activity [9]?
The residual activity was 100%.

And the residual activity [10]?
The residual activity was 98%.

And the residual activity [11]?
Its residual activity is 83%.

And the residual activity [12]?
Its residual activity is 97%.

What about the inhibition [13] of the same compound?
The inhibition was -5.97%.

And the residual activity [14]?
The residual activity was 96%.

And the residual activity [15]?
The residual activity was 100%.

And the residual activity [16]?
The residual activity was 89%.

And the residual activity [17]?
Its residual activity is 91%.

And the residual activity [18]?
The residual activity was 100%.

What about the residual activity [19] of the same compound?
The residual activity was 100%.

And the inhibition [20]?
The inhibition was 1.07%.

What about the residual activity [21] of the same compound?
Its residual activity is 96%.

What about the residual activity [22] of the same compound?
Its residual activity is 82%.

What about the residual activity [23] of the same compound?
Its residual activity is 100%.

What about the residual activity [24] of the same compound?
The residual activity was 71%.

And the residual activity [25]?
Its residual activity is 88%.

What about the residual activity [26] of the same compound?
Its residual activity is 100%.

What about the residual activity [27] of the same compound?
The residual activity was 94%.

What about the residual activity [28] of the same compound?
Its residual activity is 100%.

And the residual activity [29]?
The residual activity was 82%.

And the residual activity [30]?
Its residual activity is 82%.

What about the residual activity [31] of the same compound?
The residual activity was 82%.

What about the residual activity [32] of the same compound?
Its residual activity is 96%.

And the residual activity [33]?
Its residual activity is 99%.

What about the residual activity [34] of the same compound?
Its residual activity is 95%.

What about the residual activity [35] of the same compound?
Its residual activity is 79%.

What about the residual activity [36] of the same compound?
Its residual activity is 77%.

What about the residual activity [37] of the same compound?
The residual activity was 56%.

What about the residual activity [38] of the same compound?
Its residual activity is 100%.

What about the residual activity [39] of the same compound?
Its residual activity is 93%.

What about the residual activity [40] of the same compound?
The residual activity was 95%.

And the inhibition [41]?
Its inhibition is 1.02%.

And the residual activity [42]?
The residual activity was 100%.

And the residual activity [43]?
The residual activity was 90%.

What about the residual activity [44] of the same compound?
The residual activity was 67%.

And the residual activity [45]?
Its residual activity is 77%.

How did the residual activity [1] turn out when `C[C@H](c1cccc(C#N)c1)n1cc(Cl)cc(C(N)=O)c1=N` [(R)-9s] was run?
The residual activity was 97%.

What about the residual activity [2] of the same compound?
Its residual activity is 89%.

And the residual activity [3]?
Its residual activity is 85%.

What about the residual activity [4] of the same compound?
Its residual activity is 100%.

And the residual activity [5]?
Its residual activity is 64%.

What about the residual activity [6] of the same compound?
The residual activity was 81%.

And the residual activity [7]?
Its residual activity is 88%.

And the residual activity [8]?
Its residual activity is 85%.

What about the residual activity [9] of the same compound?
The residual activity was 100%.

What about the residual activity [10] of the same compound?
Its residual activity is 91%.

And the residual activity [11]?
The residual activity was 65%.

And the residual activity [12]?
Its residual activity is 79%.

And the inhibition [13]?
Its inhibition is -1.16%.

What about the residual activity [14] of the same compound?
Its residual activity is 100%.

What about the residual activity [15] of the same compound?
The residual activity was 92%.

What about the residual activity [16] of the same compound?
The residual activity was 88%.

What about the residual activity [17] of the same compound?
Its residual activity is 44%.

And the residual activity [18]?
Its residual activity is 98%.

And the residual activity [19]?
The residual activity was 100%.

What about the inhibition [20] of the same compound?
Its inhibition is 10.7%.

And the residual activity [21]?
The residual activity was 96%.

What about the residual activity [22] of the same compound?
The residual activity was 100%.

And the residual activity [23]?
Its residual activity is 100%.

And the residual activity [24]?
The residual activity was 56%.

What about the residual activity [25] of the same compound?
The residual activity was 78%.

What about the residual activity [26] of the same compound?
Its residual activity is 89%.

What about the residual activity [27] of the same compound?
Its residual activity is 95%.

And the residual activity [28]?
The residual activity was 100%.

What about the residual activity [29] of the same compound?
The residual activity was 96%.

What about the residual activity [30] of the same compound?
The residual activity was 76%.

And the residual activity [31]?
The residual activity was 93%.

What about the residual activity [32] of the same compound?
Its residual activity is 100%.

And the residual activity [33]?
Its residual activity is 100%.

And the residual activity [34]?
The residual activity was 100%.

What about the residual activity [35] of the same compound?
Its residual activity is 94%.

And the residual activity [36]?
The residual activity was 53%.

And the residual activity [37]?
The residual activity was 100%.

What about the residual activity [38] of the same compound?
The residual activity was 100%.

What about the residual activity [39] of the same compound?
The residual activity was 100%.

And the residual activity [40]?
The residual activity was 91%.

And the inhibition [41]?
Its inhibition is -4.95%.

What about the residual activity [42] of the same compound?
The residual activity was 97%.

And the residual activity [43]?
Its residual activity is 96%.

What about the residual activity [44] of the same compound?
Its residual activity is 58%.

What about the residual activity [45] of the same compound?
The residual activity was 80%.
